Series [1] deals with depletion of dopamine induced by MPTP in mice whole brain. Briefly: animal or person. The class given is in vivo, SlC: ddy strain male mice. The note with it: Mus musculus, po, 168 h, read-out: Percentage of the amount of dopamine in the treated group against the amount of dopamine in the non-treated group.
Series [2] concerns inhibition of conditioned avoidance response induced by reserpine in rats. Description: Inhibition of conditioned avoidance response induced by reserpine in rats. The class given is in vivo, Std-Wistar male rats. The note with it: for Conditioned avoidance response 1 hour after administration of the test sample: reserpine 1 mg/kg, control 2; for Conditioned avoidance response before administration of reserpine: baseline before test sample; for Conditioned avoidance response 18 to 20 hours after administration of reserpine: reserpine 1 mg/kg i.p., before test sample. On the procedure: Effect of the test samples on the inhibition of conditioned avoidance response induced by reserpine in rats
Std-Wistar male rats (8 to 9 week age) weighing of 270 to 300 g were fed under the conditions of 23±2° C., 60±10% R.H. and artificial lighting from 7 AM to 7 PM for a week, and then subjected to the test.
The test was carried out by using a shuttle box. The shuttle box used herein was a rectangular box, which was equipped with a buzzer for conditioned stimulus at the upper part and grids of 2 mm in diameter, for non-conditioned stimulus, at intervals of 1 cm on the floor, and divided into two equal sized compartments by a hurdle of 5 cm in height.
The schedule for inducing the conditioned avoidance response was controlled by a computer, and all the observed results of avoidance or escape response were recorded automatically.
The avoidance condition was carried out as follows:
After the conditioned stimulus of the buzzer with sound signal for 5 seconds, the non-conditioned stimulus of the foot shock was given for 5 seconds to rats. Each stimulus was stopped immediately, if the rat jumped over the hurdle to the other compartment during the conditioned or non-conditioned stimulus.
The above-mentioned rats were put on the trials for 25 times. Then the rats were given reserpine (1 mg/kg, intraperitoneally). The rats were tested for 15 times at the time of 18 to 20 hours after the reserpine administration, and then they were divided into several groups ([…]).
The test sample was dissolved in distilled water and administered orally to each group at 24 to 26 hours after the reserpine administration. For reference, distilled water as control sample, and amitriptyline and amantadine as test drugs were used.
At one hour after the test sample administration, the rats were put on the trials for 25 times and the conditioned avoidance responce was compared between the control group (distilled water administration), the test compound-administered group and the test drug-administered groups.

For series [3], the system named is re-uptake of ^3 H-dopamine. Description: Re-uptake of 3H-dopamine in vitro (synaptosomes, P2 fraction of whole brain). The note with it: rat brain synaptosomes, 37° C., 20 minutes. The class given is biochemical, Std: Wistar strain male rat. On the procedure: Effect of the test samples on the re-uptake of ^3 H-dopamine in vitro
P2 fraction was prepared from the whole brain of Std: Wistar strain male rat. […] The obtained mixture was incubated at 37° C. for 20 minutes and then subjected to the suction filtration with Whatman GF/B filter paper.
The obtained filter paper was put in a vial containing 10 ml of toluene type scintillator and its radioactivity was measured by means of liquid scintillation counter. The amount of the specific re-uptake of ^3 H-dopamine was obtained by subtracting the amount of re-uptake at 0° C. as blank.

Series [4] has as its system depletion of serotonin induced by p-chloroamphetamine. Briefly: Depletion of serotonin (5-HT) induced by p-chloroamphetamine (whole brain). The class given is in vivo, SlC:ddy mice. The note with it: p-chloroamphetamine 10 mg/kg i.p., control 48 ± 6, **p < 0.01. As to the method:
Effect of the test samples on the depletion of serotonin (hereinafter referred to as "5-HT") induced by p-chloroamphetamine
The test sample was administered orally to SlC:ddy made mice and after 60 minutes, p-chloroamphetamine (10 mg/kg) was injected intraperitoneally.
At 6 hours later, the mice were decapitated. The whole brain was rapidly removed and homogenized in 0.06M perchloric acid with N-methylserotonin (10 μg/ml) as an internal standard. The homogenate was centrifuged and then the amount of 5-HT in the supernatant was determined by high performance liquid chromatography with electrochemical detection.
Amitriptyline was used as the reference drug and distilled water was used as control sample.

In series [5] the test system is circling behavior in rats with unilateral substantia nigra lesions. Description: Circling behavior in rats with unilateral substantia nigra lesions. The class given is in vivo, Std: Wistar male rats. The note with it: 50 mg/kg oral, 2 hours after; control 0.1 ± 0.4. As to the method:
Effect of the test samples on circling behavior in rats with unilateral substantia nigra lesions
Std: Wistar male rats (8 heads/group) were used. The rat with unilateral substantia nigra lesions was made by injecting 8 μg/4 μl of 6-hydroxydopamine to the right side of substantia nigra.
The test sample was administered orally to the rat. At 2 hours later, the number of circling behavior per 10 minutes was counted.
Amantadine was used as the reference drug and distilled water was used as control sample.

Series [6] concerns depletion of norepinephrine induced by 6-hydroxydopamine in rat heart. Description: Depletion of norepinephrine induced by 6-hydroxydopamine in rat heart. The note with it: 6-hydroxydopamine 20 mg/kg i.p., control 20 ± 4, non-treatment 425 ± 49, **p < 0.01. The class given is in vivo, Std: Wistar male rats. On the procedure:
Effect of the test samples on the depletion of norepinephrine induced by 6-hydroxydopamine in rat heart.
The test sample was administered orally to Std: Wistar male rats and after 30 minutes, 6-hydroxydopamine (20 mg/kg) was injected intraperitoneally.
At 16 hours after injection of 6-hydroxydopamine, the rats were killed. The whole heart was rapidly removed and homogenized in 0.05M perchloric acid with isoproterenol (10 mg/ml) as an internal standard. The homogenate was centrifuged and then the amount of norepinephrine in the supernatant was determined by means of high performance liquid chromatography with electrochemical detection.
Desipramine was used as the reference drug and distilled water was used as control sample.

Series [7] in a line: Acute toxicity, oral, mice. The note with it: mouse, in vivo, read-out: Number of dead mice per 10 mice. Details: species or system SlC:ddy male mice. As to the method:
SlC:ddy male mice (10 heads/group) were used.
After the oral administration of the test smaple, desipramine was used as the test drug, to the mice, the number of the dead mice was counted at 0.5, 1, 2, 4, 18 and 24 hours respectively after the oral administration.

Where [8] appears, read: Experiment I, 10 mg/kg oral, MPTP 50 mg/kg s.c., control 71 ± 11, *P < 0.05, **P < 0.01.
[9] abbreviates: Experiment I, 30 mg/kg oral, MPTP 50 mg/kg s.c., control 71 ± 11, *P < 0.05, **P < 0.01.

The source of these data is patent US4939175A, “Use of N,N-dimethyl-1-[1-(4-chlorophenyl)cyclobutyl]-3-methylbutylamine” (priority 1988, dated 1990).

Where two headings read alike, the source gives them in different places.

In the case of `CNCCCC12CCC(c3ccccc31)c1ccccc12` [Maprotiline, maprotiline], in series [1], the response vs control in vivo at 10 mg/kg stood at 65 ± 17% and the response vs control in vivo at 30 mg/kg was 74 ± 17%.
In the case of `CN1CCN2c3ccccc3Cc3ccccc3C2C1` (stereo not drawn) [Mianserin, mianserin], in series [1], the response vs control in vivo at 10 mg/kg was determined as 72 ± 16% and the response vs control in vivo at 30 mg/kg was 69 ± 8%.
In the case of `CN[C@@H](C)Cc1ccccc1` [Methamphetamine, methamphetamine], the response vs control in vivo at 3 mg/kg in series [1] (Experiment I, 3 mg/kg oral, MPTP 50 mg/kg s.c., control 71 ± 11, *P < 0.05, **P < 0.01) is 97 ± 14%; in series [1] (Experiment II, 3 mg/kg oral, MPTP 50 mg/kg s.c., control 88 ± 20, *P < 0.05), 102 ± 21%; in series [1], 91 ± 20%.
Broadly, the IC50 is the concentration needed to halve the response being measured. In the case of `CN(C)CCC=C1c2ccccc2CCc2ccccc21` [Amitriptyline, amitriptyline], the figures for the “Conditioned avoidance response 1 hour after administration of the test sample” value in series [2] (10 mg/kg oral) and in series [2] (40 mg/kg oral) were 1% and 0%, respectively. Further, the “Conditioned avoidance response before administration of reserpine” value in series [2] (10 mg/kg group) worked out at 93%; in series [2] (40 mg/kg group) it was 94%. Further, the “Conditioned avoidance response 18 to 20 hours after administration of reserpine” value in series [2] (10 mg/kg group) came out at 1%; in series [2] (40 mg/kg group), 7%. For the same molecule, in series [1] (setting [8]), the response vs control in vivo at 10 mg/kg amounted to 81 ± 15%. In addition, in series [1] (setting [9]), the response vs control in vivo at 30 mg/kg was 77 ± 15%. Moreover, the IC50 in series [3] (Experiment I) came to 7.7 µM; in series [3] (Experiment II) it was 8.2 µM. For the same molecule, the “Percentages of the amount of 5-HT in the treated group against the amount of 5-HT in the non-treated group” value is listed as 50 ± 4% in series [4] (10 mg/kg oral), 56 ± 10% in series [4] (30 mg/kg oral) and 92 ± 8% in series [4] (90 mg/kg oral).
For `CN(C)CC/C=C1\c2ccccc2CSc2ccccc21` [Dosulepin, dosulepin], in series [1] (setting [8]), the response vs control in vivo at 10 mg/kg stood at 70 ± 13%. Besides, in series [1] (setting [9]), the response vs control in vivo at 30 mg/kg was 77 ± 12%.
As to `CN(C)CCCN1c2ccccc2CCc2ccccc21` [Imipramine, imipramine], half-maximal inhibition in series [3] (Experiment II) (IC50) required 15 µM.
On to `NC12CC3CC(CC(C3)C1)C2` [Amantadine, amantadine], for which the figures for the “Conditioned avoidance response 1 hour after administration of the test sample” value in series [2] (10 mg/kg oral) and in series [2] (50 mg/kg oral) were 2% and 38%, respectively. Further, the “Conditioned avoidance response before administration of reserpine” value came out at 94% in series [2] (10 mg/kg group) and 95% in series [2] (50 mg/kg group). Further, the “Conditioned avoidance response 18 to 20 hours after administration of reserpine” value in series [2] (10 mg/kg group) and in series [2] (50 mg/kg group) was 3% each time. Moreover, the response vs control in vivo at 10 mg/kg in series [1] (Experiment II, 10 mg/kg oral, MPTP 50 mg/kg s.c., control 88 ± 20, *P < 0.05) came out at 77 ± 21%. Besides, the response vs control in vivo at 30 mg/kg in series [1] (Experiment II, 30 mg/kg oral, MPTP 50 mg/kg s.c., control 88 ± 20, *P < 0.05) is 64 ± 16%. Further, the “Number of circling behavior per 10 min.” value in series [5] is given as 0.4 ± 0.7 per 10 min.
For the molecule `CN(C)CCCN1c2ccccc2CCc2ccc(Cl)cc21` [Clomipramine, clomipramine], in series [1], the response vs control in vivo at 10 mg/kg was determined as 74 ± 13% and the response vs control in vivo at 30 mg/kg came to 74 ± 14%.
As for `CNCCCN1c2ccccc2CCc2ccccc21` [Desipramine, desipramine], the response vs control in vivo at 10 mg/kg in series [1] (setting [8]) was 74 ± 15%. For the same molecule, the response vs control in vivo at 30 mg/kg in series [1] (setting [9]) was determined as 79 ± 18%. The “Amount of Norepinephrine” value in series [6] (0.625 mg/kg oral) came out at 35 ± 4 ng/g. The “Amount of Norepinephrine” value in series [6] (1.25 mg/kg oral) came to 74 ± 26 ng/g. For the same molecule, the “Amount of Norepinephrine” value in series [6] (2.5 mg/kg oral) is recorded as 211 ± 79 ng/g. Besides, in series [7] (200 mg/kg oral), the mortality at 0.5 h stood at 0%, the mortality at 1 h turned out to be 0%, the mortality at 2 h was 0% and the mortality at 4 h amounted to 0%. Further, in series [7] (200 mg/kg oral), the mortality at 18 h stood at 0% and the mortality at 24 h turned out to be 0%. Further, in series [7] (800 mg/kg oral), the mortality at 0.5 h was 100%, the mortality at 1 h worked out at 100%, the mortality at 2 h came to 100% and the mortality at 4 h stood at 100%. Moreover, in series [7] (800 mg/kg oral), the mortality at 18 h turned out to be 100% and the mortality at 24 h amounted to 100%.
